From US7459444B2, “Inhibitors of chymase” (Janssen Pharmaceutica N.V., priority 2004, dated 2008)

Target: T1, human skin chymase (Homo sapiens, UniProt P23946)
T1 construct: using human skin chymase (Cortex Biochem); purchased Cortex Biochem
T1 sequence (P23946 22-247): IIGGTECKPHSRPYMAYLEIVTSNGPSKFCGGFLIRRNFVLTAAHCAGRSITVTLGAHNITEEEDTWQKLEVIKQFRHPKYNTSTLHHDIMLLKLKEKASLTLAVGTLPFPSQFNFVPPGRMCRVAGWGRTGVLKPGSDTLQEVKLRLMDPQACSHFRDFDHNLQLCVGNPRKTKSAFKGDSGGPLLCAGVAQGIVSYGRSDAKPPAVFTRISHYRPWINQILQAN
Assay: Enzyme-catalyzed hydrolysis assay (chymase inhibition)
Assay type: biochemical
Conditions: 10 nM enzyme, 0.7 mM Suc-Ala-Ala-Pro-Phe-pNa, pH 8.0, 37° C., 30 minutes
Description: Enzyme-catalyzed hydrolysis rates were measured spectro-photometrically using human skin chymase (Cortex Biochem), a chromogenic substrate (Suc-Ala-Ala-Pro-Phe-pNa) (Bachem) in aqueous buffer (450 mM Tris, 1800 mM NaCl, pH 8.0), and a microplate reader (Molecular Devices). […] Percent inhibition was calculated by comparing the initial reaction slopes of the samples without inhibitor to those with inhibitor. IC50 values were determined using a four parameter fit logistics model. The term “NT” indicates a compound that was not tested.

| Compound | IC50 |
| --- | --- |
| CP(=O)(O)C(C(=O)NC=Cc1cccc(C(F)(F)F)c1)c1csc2ccc(Cl)cc12 (stereo not drawn) [Cpd 152] | 0.13 ± 0.03 µM |
| CP(=O)(O)C(C(=O)NC=Cc1ccc(Cl)cc1)c1csc2ccc(Cl)cc12 (stereo not drawn) [Cpd 78] | 1.5 ± 0.43 µM |
| CP(=O)(O)C(C(=O)N/C=C/c1cccc(N)c1)c1csc2ccc(Cl)cc12 (stereo not drawn) [Cpd 172] | 0.041 ± 0.02 µM |
| CP(=O)(O)C(C(=O)N/C=C/c1ccc(F)cc1F)c1csc2ccc(Cl)cc12 (stereo not drawn) [Cpd 171] | 0.025 ± 0.01 µM |
| CP(=O)(O)C(C(=O)N/C=C/c1cccc(Br)c1)c1csc2ccc(Cl)cc12 (stereo not drawn) [Cpd 167] | 0.017 ± 0.04 µM |
| CP(=O)(O)C(C(=O)N/C=C/c1ccccc1Cl)c1csc2ccc(Cl)cc12 (stereo not drawn) [Cpd 160] | 0.065 ± 0.02 µM |
| CP(=O)(O)C(C(=O)N/C=C/c1cc(F)cc(F)c1)c1csc2ccc(Cl)cc12 (stereo not drawn) [Cpd 162] | 0.009 µM |

More lines, now with the values ahead:

| IC50 | Compound |
| --- | --- |
| 1.72 µM | O=C(Nc1cc2ccccc2cc1C(=O)N1CCC(c2c[nH]c3ccccc23)CC1)C(c1cccc2ccccc12)P(=O)(O)O (stereo not drawn) [Cpd 83] |
| 0.21 ± 0.01 µM | CP(=O)(O)C(C(=O)Nc1ccc2ccccc2c1)c1c(C(=O)N2CCC(c3ccccc3)CC2)sc2ccccc12 (stereo not drawn) [Cpd 32, Methyl-{(naphthalen-2-ylcarbamoyl)-[2-(4-phenyl-piperidine-1-carbonyl)-benzo[b]thiophen-3-yl]-methyl}-phosphinic acid] |
| 0.51 ± 0.124 µM | O=C(Nc1cc2ccccc2cc1C(=O)N1CCC(CCc2ccccc2)C1)C(c1cccc2ccccc12)P(=O)(O)O (stereo not drawn) [Cpd 54] |
| 0.606 ± 0.13 µM | Cn1cc(C(C(=O)Nc2ccc3ccccc3c2)P(=O)(O)O)c2cc(C(=O)O)ccc21 (stereo not drawn) [Cpd 56, 1-Methyl-3-[(naphthalen-2-ylcarbamoyl)-phosphono-methyl]-1H-indole-5-carboxylic acid] |
| 0.13 ± 0.02 µM | O=C(Nc1ccc2ccccc2c1)C(c1cn(CC=Cc2ccccc2)c2ccccc12)P(=O)(O)O (stereo not drawn) [Cpd 27] |
| 0.31 ± 0.04 µM | O=C(Nc1ccc2ccccc2c1)C(c1csc2ccc(Cl)cc12)P(=O)(O)CCCc1ccc2c(c1)OCO2 (stereo not drawn) [Cpd 39] |
| 0.663 µM | O=C(Nc1cc2ccccc2cc1C(=O)N1CCC(n2c(=O)[nH]c3ccc(Cl)cc32)CC1)C(c1cccc2ccccc12)P(=O)(O)O (stereo not drawn) [Cpd 60, ({3-[4-(6-Chloro-2-oxo-2,3-dihydro-benzoimidazol-1-yl)-piperidine-1-carbonyl]-naphthalen-2-ylcarbamoyl}-naphthalen-1-yl-methyl)-phosphonic acid] |
| 0.235 ± 0.045 µM | COc1ccc(C2CCN(C(=O)c3sc4ccccc4c3C(C(=O)Nc3ccc4ccccc4c3)P(C)(=O)O)CC2)cc1 (stereo not drawn) [Cpd 35] |
| 0.4 ± 0.12 µM | CP(=O)(O)C(C(=O)NC=Cc1ccccc1N)c1csc2ccc(Cl)cc12 (stereo not drawn) [Cpd 151, [[2-(2-Amino-phenyl)-vinylcarbamoyl]-(5-chloro-benzo[b]thiophen-3-yl)-methyl]-methyl-phosphinic acid] |
| 0.019 ± 0.005 µM | Cc1ccc2scc(C(C(=O)Nc3ccc4ccccc4c3)P(=O)(O)O)c2c1 (stereo not drawn) [Cpd 5] |

System: angiotensin II activity
Assay: not given
Conditions: human vascular extracts; cited from earlier work

| Compound | angiotensin II activity inhibited |
| --- | --- |
| NCCCC[C@H](N[C@@H](CCc1ccccc1)C(=O)O)C(=O)N1CCC[C@H]1C(=O)O [lisinopril] | about 8% |

System: not listed separately
Assay: Pharmacokinetic assay for evaluation of oral absorption potential
Assay type: in vivo
Conditions: male Sprague Dawley rats, oral gavage 15 mg/kg in 20% hydroxy-beta-cyclo dextran, plasma, N = 2; read-out: CMax (μM) @ 2 h
Description: Male Sprague Dawley rats, weighing 250-300 g, were fasted overnight then dosed by oral gavage at a level of 15 mg/kg with a compound. Compounds were formulated in 20% hydroxy-beta-cyclo dextran.
Blood samples (0.5 mL) were collected into lithium heparinized tubes at 0.5, 1.0 and 2.0 h post dose via orbital sinus puncture. Blood samples were centrifuged at 2000 rpm for ˜3 min for cell removal, approximately 200 μL of plasma supernatant was then transferred to a clean vial, frozen then placed on dry ice and delivered to SFBC Analytical Labs, Inc. for analysis.
Plasma samples were prepared as follows. Two hundred microliters of acetonitrile containing 1 μM internal standard was added to 100 μL of plasma to precipitate proteins. Samples were centrifuged at 5000 g for 5 min and supernatant removed for analysis by LC-MS. Two hundred microliters of water was added to adjust sample solvent strength and prevent peak splitting. Calibration standards were prepared by adding appropriate volumes of stock solution directly into plasma and treated identically to collected plasma samples. Calibration standards were prepared in the range of 0.1 to 10 μM for quantitation. LC-MS analysis was performed using MRM (Multiple Reaction Monitoring) detection of characteristic ions for each drug candidate and internal standard.

| Cmax | Compound |
| --- | --- |
| 4.1 ± 0.28 µM | O=C(NC=Cc1ccccc1)C(c1cccc2ccccc12)P1(=O)OCCCO1 (stereo not drawn) [Cpd 178, 2-Naphthalen-1-yl-2-(2-oxo-2l5-[1,3,2]dioxaphosphinan-2-yl)-N-styryl-acetamide] |

Same assay, conditions: rat; male Sprague Dawley rats, oral gavage 15 mg/kg in 20% hydroxy-beta-cyclo dextran, plasma, N = 2

| Cmax at 2 h | Compound |
| --- | --- |
| 21.1 ± 2.3 µM | O=C(N/C=C/c1ccc(F)c(F)c1)C(c1csc2ccc(Cl)cc12)P1(=O)OCCCO1 (stereo not drawn) [Cpd 189, 2-(5-Chloro-benzo[b]thiophen-3-yl)-N-[2-(3,4-difluoro-phenyl)-vinyl]-2-(2-oxo-2,5-[1,3,2]dioxaphosphinan-2-yl)-acetamide] |
| 11.8 ± 3.26 µM | CC(C)(C)C(=O)OCOP(C)(=O)C(C(=O)N/C=C/c1ccc(F)c(F)c1)c1csc2ccc(Cl)cc12 (stereo not drawn) [Cpd 182] |
| 2.1 ± 0.23 µM | CCN(CC)C(=O)COP(C)(=O)C(C(=O)NC=Cc1ccc(F)c(F)c1)c1csc2ccc(Cl)cc12 (stereo not drawn) [Cpd 185, {(5-Chloro-benzo[b]thiophen-3-yl)-[2-(3,4-difluoro-phenyl)-vinylcarbamoyl]-methyl}-methyl-phosphinic acid diethylcarbamoylmethyl ester] |
| 2 ± 1.1 µM | CC(C)(C)C(=O)OCOP(=O)(O)C(C(=O)N/C=C/c1ccccc1)c1cccc2ccccc12 (stereo not drawn) [Cpd 177] |
| 0.1 ± 0.05 µM | CP(=O)(OCCN)C(C(=O)NC=Cc1ccc(F)c(F)c1)c1csc2ccc(Cl)cc12 (stereo not drawn) [Cpd 184, {(5-Chloro-benzo[b]thiophen-3-yl)-[2-(3,4-difluoro-phenyl)-vinylcarbamoyl]-methyl}-methyl-phosphinic acid 2-amino-ethyl ester] |
| < 0.1 µM | CCN(CC)C(=O)COP(=O)(OCC(=O)N(CC)CC)C(C(=O)N/C=C/c1ccccc1)c1cccc2ccccc12 (stereo not drawn) [Cpd 180, (Naphthalen-1-yl-styrylcarbamoyl-methyl)-phosphonic acid didiethylcarbamoylmethyl ester] |
| 21.4 ± 11 µM | CC(C)(C)C(=O)OCOP(=O)(O)C(C(=O)N/C=C/c1ccc(F)c(F)c1)c1csc2ccc(Cl)cc12 (stereo not drawn) [Cpd 187, 2,2-Dimethyl-propionic acid {(5-chloro-benzo[b]thiophen-3-yl)-[2-(3,4-difluoro-phenyl)-vinylcarbamoyl]-methyl}-hydroxy-phosphinoyloxymethyl ester] |
| 20.1 ± 3.5 µM | CC(C)(C)C(=O)OCOP(=O)(OCOC(=O)C(C)(C)C)C(C(=O)N/C=C/c1ccc(F)c(F)c1)c1csc2ccc(Cl)cc12 (stereo not drawn) [Cpd 186, 2,2-Dimethyl-propionic acid {(5-chloro-benzo[b]thiophen-3-yl)-[2-(3,4-difluoro-phenyl)-vinylcarbamoyl]-methyl}-(2,2-dimethyl-propionyloxymethoxy)-phosphinoyloxymethyl ester] |

System: Ascaris suum antigen-induced asthmatic response in conscious sheep
Assay: Ascaris suum antigen-induced asthmatic response in conscious sheep
Assay type: in vivo
Conditions: aerosol 4.5 mg/dose BID for three days plus dose on day 4, 0.5 h prior to antigen challenge; n=2 sheep/group; FIG. 1
Description: The efficacy of Compound 17 for the treatment of asthma was evaluated in a validated model of Ascaris suum antigen-induced asthmatic response in conscious sheep (Abraham, W. M., Pharmacology of allergen-induced early and late airway responses and antigen-induced airway hyperresponsiveness in allergic sheep, Pulmonary Pharmacology, 1989, 2, 33-40).
Baseline (BSL) dose response curves to aerosol carbachol were obtained from historical control responses prior to antigen challenge. Baseline values of specific lung resistance (SRL) were obtained and the sheep were then given a specified amount (mg) of the test compound as an inhaled aerosol or as a oral dose at a specified time before antigen challenge. Post-drug measurements of SRL were obtained and the sheep were then challenged with Ascaris suum antigen. Measurements of SRL were obtained immediately after challenge, hourly from 1-6 h after challenge and on the half-hour from 6½-8 h after challenge. Measurements of SRL were obtained 24 h after challenge followed by a 24 h post-challenge with carbachol to measure airway hyperreactivity.
Compound 17 was administered as an aerosol at 4.5 mg/dose (ca. 0.1 mg/Kg/dose, based on a 45 Kg sheep), twice-a-day (BID) for three consecutive days, followed by a dose on day 4, 0.5 h prior to antigen challenge. Ascaris suum antigen challenge was given at the zero time point.
Compound 17 was administered as an oral solution at 15 mg/Kg/dose, twice-a-day (BID) for three consecutive days, followed by a dose on day 4, 2 h prior to antigen challenge. Ascaris suum antigen challenge was given at the zero time point.

| Compound | early airway response (0-2 h after antigen challenge) | late airway response (6-8 h after antigen challenge) |
| --- | --- | --- |
| CP(=O)(O)C(C(=O)N/C=C/c1ccc(F)c(F)c1)c1csc2ccc(Cl)cc12 (stereo not drawn) [Cpd 17] | unchanged | completely blocked |

Same assay, conditions: aerosol administration; FIG. 2

| Compound | delayed airway hyperreactivity at 24 h post antigen challenge (carbachol challenge) |
| --- | --- |
| CP(=O)(O)C(C(=O)N/C=C/c1ccc(F)c(F)c1)c1csc2ccc(Cl)cc12 (stereo not drawn) [Cpd 17] | completely blocked |

Same assay, conditions: oral administration; FIG. 4

| Compound | delayed airway hyperreactivity at 24 h post antigen challenge (carbachol challenge) |
| --- | --- |
| CP(=O)(O)C(C(=O)N/C=C/c1ccc(F)c(F)c1)c1csc2ccc(Cl)cc12 (stereo not drawn) [Cpd 17] | completely blocked |

Same assay, conditions: oral solution 15 mg/Kg/dose BID for three days plus dose on day 4, 2 h prior to antigen challenge; n=2 sheep/group; FIG. 3

| Compound | early airway response (0-2 h after antigen challenge) | late airway response (6-8 h after antigen challenge) |
| --- | --- | --- |
| CP(=O)(O)C(C(=O)N/C=C/c1ccc(F)c(F)c1)c1csc2ccc(Cl)cc12 (stereo not drawn) [Cpd 17] | unchanged | completely blocked |
